Laboratory results: US5560907A, “Whitening embellisher” (Eisai Co., Ltd., priority 1992, dated 1996)

Assays:
[1] = test system: B16 melanoma cells derived from a mouse; assay: Restraint of melanin production in cultured B16 melanoma cells
[2] = test system: tyrosinase in the B16 melanoma cells; assay: Amount of tyrosinase in B16 melanoma cells by SDS-PAGE; format: cell-based, mouse; conditions: culture systems added with teprenone
[3] = test system: tyrosinase, derived from mushroom; assay: Inhibition of enzyme activity of mushroom tyrosinase; format: biochemical; conditions: concentration of 0.01-0.1%
Solubility in water = format: physicochemical
From the text: The whitening and beautifying preparation suitable for use in a bath according to the present invention means a preparation which can be dissolved in hot water in a bathtub upon bathing to use it, and can be provided as tablets, granules, powder, liquid or the like. It can be formulated according to any process generally used.

[4] = Mus musculus, B16, read-out: production of melanin restrained, to control

solubility in water (Solubility in water)	SMILES	concentration essential for attaining the same effect of the combined use as kojic acid ([1]; arbutin combined with teprenone, equals 10-30 ppm)	inhibition at 0.0001 % [1, 4]	inhibition at 0.0002 % [1, 4]	inhibition at 0.0003 % [1, 4]	reversibility of the melanin inhibiting action ([1]; cells cultured again in a system containing no teprenone, melanin greatly increased)	cytotoxicity ([1]; sample concentrations 1×10^-4 to 3×10^-4 %)	amount of tyrosinase in the B16 melanoma cells [2]	action to inhibit the enzyme activity of tyrosinase [3]
–	OC[C@H]1O[C@@H](Oc2ccc(O)cc2)[C@H](O)[C@@H](O)[C@@H]1O [arbutin]	1×10^-3 -3×10^-3%	–	–	–	–	–	–	–
insoluble in water	CC(=O)CCC=C(C)CCC=C(C)CCC=C(C)CCC=C(C)C [teprenone, geranylgeranylacetone]	–	85%	80%	70%	reversible inhibiting action	no cytotoxicity was recognized	decreased in proportion to the concentration of teprenone added	did not exhibit any action to inhibit the enzyme activity
